In ChEMBL document CHEMBL1139035, “Evaluation of the antioxidant properties of diarylamines in the benzo[b]thiophene series by free radical scavenging activity and reducing power” (Bioorg Med Chem Lett, 2006):

Experiments:
Assay type in all cases: functional
[1] = test system: Radical scavenging activity; assay: DPPH radical scavenging activity at 0.0625 g/L
[2] = test system: Radical scavenging activity; assay: DPPH radical scavenging activity at 0.250 g/L
[3] = test system: Radical scavenging activity; assay: DPPH radical scavenging activity at 0.0156 g/L
[4] = test system: Radical scavenging activity; assay: DPPH radical scavenging activity at 0.125 g/L
[5] = test system: Radical scavenging activity; assay: DPPH radical scavenging activity at 0.0312 g/L

Row | Structure (SMILES) | Activity [1] [%] | Activity [2] [%] | Activity [3] [%] | Activity [4] [%] | Activity [5] [%]
1 | COc1ccc(O)c(C(C)(C)C)c1.COc1ccc(O)cc1C(C)(C)C | 75.7 | 84 | 41.2 | 83 | 63
2 | Cc1cc2c(C)c(C)sc2cc1Nc1ccccc1F | 0.52 | 1.21 | 0 | 0.54 | 0
3 | Cc1cc2c(C)c(C)sc2cc1Nc1ccc(F)cc1 | 0 | 2.8 | 0 | 0.4 | 0
4 | COc1ccc(Nc2cc3sc(C)c(C)c3cc2C)cc1OC | 74.6 | 75.4 | 49 | 75 | 65.3
5 | CCOC(=O)c1sc2ccccc2c1Nc1ccc(F)cc1 | 0.72 | 0.9 | 0 | 0.86 | 0.54
6 | Cc1cc(C(C)(C)C)c(O)c(C(C)(C)C)c1 | 60 | 83 | 28 | 82.3 | 38.3
7 | COc1ccc(Nc2c(C(=O)O)sc3ccccc23)c(OC)c1 | 44.7 | 84 | 8.9 | 63 | 30.7
8 | CCOC(=O)c1sc2ccccc2c1Nc1ccc(OC)cc1OC | 51.1 | 74.8 | 20.8 | 64.7 | 34.8
9 | COc1ccc(Nc2cc3sc(C)c(C)c3cc2C)cc1 | 76.6 | 77 | 38.3 | 76.8 | 68.5
10 | Fc1ccc(Nc2csc3ccccc23)cc1 | 67.7 | 85 | 26.8 | 83.4 | 44.7
11 | CCOC(=O)c1sc2ccccc2c1Nc1ccc(OC)cc1 | 0.4 | 0.78 | 0 | 0.74 | 0
